Measurements as given in patent US8420675B2, “Aminotetrahydroindazoloacetic acids” (Hoffmann-La Roche Inc., priority 2008, dated 2013).

Molecular target: T1, human CRTH2 (Homo sapiens, UniProt Q9Y5Y4)
T1 construct: expressed in transfected cells
T1 sequence (Q9Y5Y4 1-395): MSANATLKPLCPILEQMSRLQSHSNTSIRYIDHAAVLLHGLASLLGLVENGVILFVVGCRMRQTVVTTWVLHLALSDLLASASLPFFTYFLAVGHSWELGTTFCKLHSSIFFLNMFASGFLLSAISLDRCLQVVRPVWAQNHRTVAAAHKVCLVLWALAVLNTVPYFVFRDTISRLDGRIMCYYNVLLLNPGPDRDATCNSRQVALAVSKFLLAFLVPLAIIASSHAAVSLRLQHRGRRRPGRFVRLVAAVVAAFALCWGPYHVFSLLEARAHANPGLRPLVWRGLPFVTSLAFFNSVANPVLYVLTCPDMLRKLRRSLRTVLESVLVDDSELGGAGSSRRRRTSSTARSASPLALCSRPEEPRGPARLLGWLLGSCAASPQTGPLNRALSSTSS
Experiment: Human CRTH2 Receptor Binding Assay (whole cell, [3H]ramatroban competition)
Settings: CHO-K1 cells expressing human CRTH2 and G-alpha16; 20 nM [3H]ramatroban; 1 hour, room temperature
Description: A whole cell receptor binding assay using [^3H]ramatroban as the competing radioactive ligand was employed to evaluate the compound binding activity to human CRTH2. The radioactive ligand [^3H]ramatroban was synthesized according to Sugimoto et. al. (Eur. J. Pharmacol. 524, 30-37, 2005) to a specific activity of 42 Ci/mmol.
A cell line stably expressing human CRTH2 was established by transfecting CHO-K1 cells with two mammalian expression vectors that harbored human CRTH2 and G-alpha16 cDNAs, respectively, using FuGene® 6 transfection reagent (from Roche). Stable clones expressing CRTH2 were selected by staining each clone with BM16 (BD Pharmingen™ from BD Biosciences, a division of Becton, Dickinson and Company), which is a rat monoclonal antibody to human CRTH2. The cells were maintained as monolayer cultures in Ham's F-12 medium containing 10% fetal bovine serum, 100 units/mL penicillin, 100 μg/mL streptomycin, 2 mM glutamine, 0.5 mg/mL G418 (geneticin) for CRTH2, and 0.2 mg/mL hygromycin-B (for G-alpha 16). For whole cell receptor binding assay, the monolayer cells were rinsed once with PBS (phosphate buffered saline), dissociated using ethylenediaminetetraacetate (Versene™ EDTA Lonza Inc.), and suspended in PBS containing 10 mM MgCl2 and 0.06% BSA (bovine serum albumin) at 1.5×10^6 cells/mL.
The binding reactions (0.2 mL) were performed in 96-well plates at room temperature in PBS containing 1.5×10^5 cells, 10 mM MgCl2, 0.06% BSA, 20 nM [^3H]ramatroban, and test compound at various concentrations. After 1 hour of binding reactions, the cells were harvested on GF™/B filter microplates (microtiter plates with embedded glass fiber from PerkinElmer, Inc.) and washed 5 times with PBS using a Filtermate™ Harvester (a cell harvester that harvests and washes cells from microplates from PerkinElmer, Inc.). The radioactivities bound to the cells were determined using a microplate scintillation counter (TopCount® NXT, from PerkinElmer, Inc.) after adding 50 μL of Microscint™ 20 scintillation fluid (from PerkinElmer, Inc.) to each well of the filter plates. The radioactivity from non-specific binding was determined by replacing compound with 10 μM of 15(R)-15-methyl PGD2 (from Cayman Chemical Company) in the reaction mixtures. The radioactivity bound to the cells in the absence of compound (total binding) was determined by replacing compound with 0.25% of DMSO (dimethyl sulfoxide) in the reaction mixture. Specific binding data were obtained by subtracting the radioactivity of non-specific binding from each binding data.
The IC50 value is defined as the concentration of the tested compound that is required for 50% inhibition of total specific binding. In order to calculate the IC50 value, the percent inhibition data were determined for 7 concentrations for each compound. The percent inhibition for a compound at each concentration was calculated according to the following formula, [1-(specific binding in the presence of compound)/(total specific binding)]x100. The IC50 value was then obtained by fitting the percent inhibition data to a sigmoidal dose-response (4 parameter logistic) model in the XLfit® software Excel add-in program [from ID Business Solutions Ltd., model 205, where F(x)=(A+(B−A)/(1+((C/x)^D)))].

IC50 | Structure (SMILES)
5.6 nM | O=C(O)CCn1ncc2c1CCCC2NS(=O)(=O)c1ccc(-c2ccccc2)cc1 (single isomer, unassigned) [Example 10-30a, 3-[4-(biphenyl-4-sulfonylamino)-4,5,6,7-tetrahydro-indazol-1-yl]-propionic acid]
27.7 nM | O=C(O)Cn1ncc2c1CCC[C@H]2NS(=O)(=O)c1ccc(Oc2ccccc2Cl)cc1 [Example 1-1a, {(R)-4-[4-(2-Chloro-phenoxy)-benzenesulfonylamino]-4,5,6,7-tetrahydro-indazol-1-yl}-acetic acid]
93.6 nM | O=C(O)Cn1ncc2c1CCC[C@H]2NS(=O)(=O)c1ccc(-c2ccccc2)cc1 [Example 1-2a, [(R)-4-(Biphenyl-4-sulfonylamino)-4,5,6,7-tetrahydro-indazol-1-yl]-acetic acid]
199 nM | O=C(O)Cn1ncc2c1CCCC2NS(=O)(=O)c1ccc(Oc2ccccc2)cc1 (centres unmarked) [Example 1-3a, [4-(4-Phenoxy-benzenesulfonylamino)-4,5,6,7-tetrahydro-indazol-1-yl]-acetic acid]
244 nM | Cc1nnc(-c2cccc(S(=O)(=O)NC3CCCc4c3cnn4CC(=O)O)c2)o1 (centres unmarked) [Example 1-4a, {4-[3-(5-Methyl-[1,3,4]oxadiazol-2-yl)-benzenesulfonylamino]-4,5,6,7-tetrahydro-indazol-1-yl}-acetic acid]
164 nM | O=C(O)Cn1ncc2c1CCCC2NS(=O)(=O)c1cccc(Oc2ccccc2)c1 (centres unmarked) [Example 1-5a, [4-(3-Phenoxy-benzenesulfonylamino)-4,5,6,7-tetrahydro-indazol-1-yl]-acetic acid]
475 nM | O=C(O)CCn1ncc2c1CCCC2NS(=O)(=O)c1ccc(-c2ccccc2)cc1 (centres unmarked) [Example 1-6a, 3-[4-(Biphenyl-4-sulfonylamino)-4,5,6,7-tetrahydro-indazol-1-yl]-propionic acid]
7.2 nM | O=C(O)Cn1ncc2c1CCCC2NS(=O)(=O)c1cnc(Oc2ccc(Cl)cc2)c(Br)c1 (centres unmarked) [Example 2-1a, {4-[5-Bromo-6-(4-chloro-phenoxy)-pyridine-3-sulfonylamino]-4,5,6,7-tetrahydro-indazol-1-yl}-acetic acid]
31.1 nM | O=C(O)Cn1ncc2c1CCCC2NS(=O)(=O)c1cnc(Oc2ccc(F)cc2)c(Br)c1 (centres unmarked) [Example 2-2a, {4-[5-Bromo-6-(4-fluoro-phenoxy)-pyridine-3-sulfonylamino]-4,5,6,7-tetrahydro-indazol-1-yl}-acetic acid]
19.4 nM | O=C(O)Cn1ncc2c1CCCC2NS(=O)(=O)c1cnc(Oc2cccc(Cl)c2)c(Br)c1 (centres unmarked) [Example 2-3a, {4-[5-Bromo-6-(3-chloro-phenoxy)-pyridine-3-sulfonylamino]-4,5,6,7-tetrahydro-indazol-1-yl}-acetic acid]
10.3 nM | N#Cc1ccc(Oc2ncc(S(=O)(=O)NC3CCCc4c3cnn4CC(=O)O)cc2Br)cc1 (centres unmarked) [Example 2-4a, {4-[5-Bromo-6-(4-cyano-phenoxy)-pyridine-3-sulfonylamino]-4,5,6,7-tetrahydro-indazol-1-yl}-acetic acid]
101 nM | CS(=O)(=O)c1ccc(Oc2ncc(S(=O)(=O)NC3CCCc4c3cnn4CC(=O)O)cc2Br)cc1 (centres unmarked) [Example 2-5a, {4-[5-Bromo-6-(4-methanesulfonyl-phenoxy)-pyridine-3-sulfonylamino]-4,5,6,7-tetrahydro-indazol-1-yl}-acetic acid]
26.4 nM | Cc1ccc(Oc2ncc(S(=O)(=O)NC3CCCc4c3cnn4CC(=O)O)cc2Br)cc1 (centres unmarked) [Example 2-6a, [4-(5-Bromo-6-p-tolyloxy-pyridine-3-sulfonylamino)-4,5,6,7-tetrahydro-indazol-1-yl]-acetic acid]
393 nM | O=C(O)Cn1ncc2c1CCCC2NS(=O)(=O)c1cnc(Oc2ccc(C(F)(F)F)cc2)c(Br)c1 (centres unmarked) [Example 2-7a, {4-[5-Bromo-6-(4-trifluoromethyl-phenoxy)-pyridine-3-sulfonylamino]-4,5,6,7-tetrahydro-indazol-1-yl}-acetic acid]
